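These data come from cells grown in 96-well plates and exposed to compound for 48 hours at five concentrations. Definition used: TGI = concentration required for complete inhibition of growth.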
Test system: 786-0 renal
Test: DTP human tumour cell line panel, 48 h

SMILES | TGI [µM]
COc1ccc(/C=C/c2cc(OC)cc(OC)c2)cc1 | 59.6
CN(c1nc(=[N+](C)C)ss1)C1CCCCC1 | > 100
CCOC(=O)c1sc2c(sc(=O)n2-c2ccccc2)c1O | > 100
Cc1ccc(NC(=O)CC(=O)n2nc(-c3ccccc3)c(N=Nc3ccccc3[N+](=O)[O-])c2-c2ccccc2)cc1 | > 100
C/C(=N/NC(=O)c1ccccc1O)c1ccc(/C(C)=N\NC(=O)c2ccccc2O)c2nc3cc(C)c(C)cc3nc12 | > 100

Test system: A498 renal
Test: DTP human tumour cell line panel, 48 h

SMILES | TGI [µM]
COc1ccc(/C=C/c2cc(OC)cc(OC)c2)cc1 | > 61
CN(c1nc(=[N+](C)C)ss1)C1CCCCC1 | > 100
CCOC(=O)c1sc2c(sc(=O)n2-c2ccccc2)c1O | > 100
C/C(=N/NC(=O)c1ccccc1O)c1ccc(/C(C)=N\NC(=O)c2ccccc2O)c2nc3cc(C)c(C)cc3nc12 | > 100

Test system: A549 NSCLC
Test: DTP human tumour cell line panel, 48 h

SMILES | TGI [µM]
COc1ccc(/C=C/c2cc(OC)cc(OC)c2)cc1 | > 100
CN(c1nc(=[N+](C)C)ss1)C1CCCCC1 | > 100
CCOC(=O)c1sc2c(sc(=O)n2-c2ccccc2)c1O | > 100
Cc1ccc(NC(=O)CC(=O)n2nc(-c3ccccc3)c(N=Nc3ccccc3[N+](=O)[O-])c2-c2ccccc2)cc1 | > 100
C/C(=N/NC(=O)c1ccccc1O)c1ccc(/C(C)=N\NC(=O)c2ccccc2O)c2nc3cc(C)c(C)cc3nc12 | > 100

Test system: ACHN renal
Test: DTP human tumour cell line panel, 48 h

SMILES | TGI [µM]
COc1ccc(/C=C/c2cc(OC)cc(OC)c2)cc1 | > 100
CN(c1nc(=[N+](C)C)ss1)C1CCCCC1 | > 100
CCOC(=O)c1sc2c(sc(=O)n2-c2ccccc2)c1O | > 100
Cc1ccc(NC(=O)CC(=O)n2nc(-c3ccccc3)c(N=Nc3ccccc3[N+](=O)[O-])c2-c2ccccc2)cc1 | > 100
C/C(=N/NC(=O)c1ccccc1O)c1ccc(/C(C)=N\NC(=O)c2ccccc2O)c2nc3cc(C)c(C)cc3nc12 | > 100

Test system: CAKI-1 renal
Test: DTP human tumour cell line panel, 48 h

SMILES | TGI [µM]
COc1ccc(/C=C/c2cc(OC)cc(OC)c2)cc1 | 46.8
CN(c1nc(=[N+](C)C)ss1)C1CCCCC1 | > 100
CCOC(=O)c1sc2c(sc(=O)n2-c2ccccc2)c1O | > 100
Cc1ccc(NC(=O)CC(=O)n2nc(-c3ccccc3)c(N=Nc3ccccc3[N+](=O)[O-])c2-c2ccccc2)cc1 | > 100

Test system: CCRF-CEM leukemia
Test: DTP human tumour cell line panel, 48 h

SMILES | TGI [µM]
COc1ccc(/C=C/c2cc(OC)cc(OC)c2)cc1 | 36.6
CN(c1nc(=[N+](C)C)ss1)C1CCCCC1 | > 100
CCOC(=O)c1sc2c(sc(=O)n2-c2ccccc2)c1O | > 100
Cc1ccc(NC(=O)CC(=O)n2nc(-c3ccccc3)c(N=Nc3ccccc3[N+](=O)[O-])c2-c2ccccc2)cc1 | > 100
C/C(=N/NC(=O)c1ccccc1O)c1ccc(/C(C)=N\NC(=O)c2ccccc2O)c2nc3cc(C)c(C)cc3nc12 | > 100

Test system: COLO 205 colon
Test: DTP human tumour cell line panel, 48 h

SMILES | TGI [µM]
COc1ccc(/C=C/c2cc(OC)cc(OC)c2)cc1 | 10.7
CCOC(=O)c1sc2c(sc(=O)n2-c2ccccc2)c1O | > 100
Cc1ccc(NC(=O)CC(=O)n2nc(-c3ccccc3)c(N=Nc3ccccc3[N+](=O)[O-])c2-c2ccccc2)cc1 | > 100
C/C(=N/NC(=O)c1ccccc1O)c1ccc(/C(C)=N\NC(=O)c2ccccc2O)c2nc3cc(C)c(C)cc3nc12 | > 100

Test system: DLD-1 colon
Test: DTP human tumour cell line panel, 48 h

SMILES | TGI [µM]
COc1ccc(/C=C/c2cc(OC)cc(OC)c2)cc1 | > 100
CN(c1nc(=[N+](C)C)ss1)C1CCCCC1 | > 100
CCOC(=O)c1sc2c(sc(=O)n2-c2ccccc2)c1O | > 100
Cc1ccc(NC(=O)CC(=O)n2nc(-c3ccccc3)c(N=Nc3ccccc3[N+](=O)[O-])c2-c2ccccc2)cc1 | > 100
C/C(=N/NC(=O)c1ccccc1O)c1ccc(/C(C)=N\NC(=O)c2ccccc2O)c2nc3cc(C)c(C)cc3nc12 | > 100

Test system: DMS 114 small cell lung
Test: DTP human tumour cell line panel, 48 h

SMILES | TGI [µM]
COc1ccc(/C=C/c2cc(OC)cc(OC)c2)cc1 | 9.91
CN(c1nc(=[N+](C)C)ss1)C1CCCCC1 | > 100
CCOC(=O)c1sc2c(sc(=O)n2-c2ccccc2)c1O | > 100
Cc1ccc(NC(=O)CC(=O)n2nc(-c3ccccc3)c(N=Nc3ccccc3[N+](=O)[O-])c2-c2ccccc2)cc1 | > 100
C/C(=N/NC(=O)c1ccccc1O)c1ccc(/C(C)=N\NC(=O)c2ccccc2O)c2nc3cc(C)c(C)cc3nc12 | > 100

Test system: DMS 273 small cell lung
Test: DTP human tumour cell line panel, 48 h

SMILES | TGI [µM]
COc1ccc(/C=C/c2cc(OC)cc(OC)c2)cc1 | 15.6
CN(c1nc(=[N+](C)C)ss1)C1CCCCC1 | > 100
CCOC(=O)c1sc2c(sc(=O)n2-c2ccccc2)c1O | > 100
Cc1ccc(NC(=O)CC(=O)n2nc(-c3ccccc3)c(N=Nc3ccccc3[N+](=O)[O-])c2-c2ccccc2)cc1 | > 100
C/C(=N/NC(=O)c1ccccc1O)c1ccc(/C(C)=N\NC(=O)c2ccccc2O)c2nc3cc(C)c(C)cc3nc12 | > 100

Test system: EKVX NSCLC
Test: DTP human tumour cell line panel, 48 h

SMILES | TGI [µM]
COc1ccc(/C=C/c2cc(OC)cc(OC)c2)cc1 | > 100
CN(c1nc(=[N+](C)C)ss1)C1CCCCC1 | > 100
CCOC(=O)c1sc2c(sc(=O)n2-c2ccccc2)c1O | > 100
Cc1ccc(NC(=O)CC(=O)n2nc(-c3ccccc3)c(N=Nc3ccccc3[N+](=O)[O-])c2-c2ccccc2)cc1 | > 100
C/C(=N/NC(=O)c1ccccc1O)c1ccc(/C(C)=N\NC(=O)c2ccccc2O)c2nc3cc(C)c(C)cc3nc12 | > 100

Test system: HCC-2998 colon
Test: DTP human tumour cell line panel, 48 h

SMILES | TGI [µM]
COc1ccc(/C=C/c2cc(OC)cc(OC)c2)cc1 | 33.2
CN(c1nc(=[N+](C)C)ss1)C1CCCCC1 | > 100
CCOC(=O)c1sc2c(sc(=O)n2-c2ccccc2)c1O | > 100
Cc1ccc(NC(=O)CC(=O)n2nc(-c3ccccc3)c(N=Nc3ccccc3[N+](=O)[O-])c2-c2ccccc2)cc1 | > 100
C/C(=N/NC(=O)c1ccccc1O)c1ccc(/C(C)=N\NC(=O)c2ccccc2O)c2nc3cc(C)c(C)cc3nc12 | > 100

Test system: HCT-116 colon
Test: DTP human tumour cell line panel, 48 h

SMILES | TGI [µM]
COc1ccc(/C=C/c2cc(OC)cc(OC)c2)cc1 | > 58
CN(c1nc(=[N+](C)C)ss1)C1CCCCC1 | > 100
CCOC(=O)c1sc2c(sc(=O)n2-c2ccccc2)c1O | > 100
Cc1ccc(NC(=O)CC(=O)n2nc(-c3ccccc3)c(N=Nc3ccccc3[N+](=O)[O-])c2-c2ccccc2)cc1 | > 100
C/C(=N/NC(=O)c1ccccc1O)c1ccc(/C(C)=N\NC(=O)c2ccccc2O)c2nc3cc(C)c(C)cc3nc12 | > 100

Test system: HCT-15 colon
Test: DTP human tumour cell line panel, 48 h

SMILES | TGI [µM]
COc1ccc(/C=C/c2cc(OC)cc(OC)c2)cc1 | > 100
CN(c1nc(=[N+](C)C)ss1)C1CCCCC1 | > 100
CCOC(=O)c1sc2c(sc(=O)n2-c2ccccc2)c1O | > 100
C/C(=N/NC(=O)c1ccccc1O)c1ccc(/C(C)=N\NC(=O)c2ccccc2O)c2nc3cc(C)c(C)cc3nc12 | > 100

Test system: HL-60(TB) leukemia
Test: DTP human tumour cell line panel, 48 h

SMILES | TGI [µM]
COc1ccc(/C=C/c2cc(OC)cc(OC)c2)cc1 | 8.52
CN(c1nc(=[N+](C)C)ss1)C1CCCCC1 | > 100
CCOC(=O)c1sc2c(sc(=O)n2-c2ccccc2)c1O | > 100
Cc1ccc(NC(=O)CC(=O)n2nc(-c3ccccc3)c(N=Nc3ccccc3[N+](=O)[O-])c2-c2ccccc2)cc1 | > 100

Test system: HOP-18 NSCLC
Test: DTP human tumour cell line panel, 48 h

SMILES | TGI [µM]
COc1ccc(/C=C/c2cc(OC)cc(OC)c2)cc1 | > 100

From PubChem BioAssay (NCI)
